From article PMC5515969, “Effects of 31 FDA approved small-molecule kinase inhibitors on isolated rat liver mitochondria” (Archives of Toxicology, 2016)
Where a name gives a salt, the structure may show the parent alone. Read-outs that look alike come from different tables or passages of the source.

Experiments:
[1] = cited from earlier work
[2] = cited from earlier work; remark: listed apart in the source
[3] = test system: isolated rat liver mitochondria
[4] = test system: isolated rat liver mitochondria; test: Mitochondrial ROS production (CM-H2DCFDA); settings: positive control, 100 µM CaCl2; DMSO-treated = 1
[5] = human therapeutic Cmax at FDA recommended dosages, ref product labeling and drug approval packages at the official FDA website

In the case of `CN(C)C/C=C/C(=O)Nc1cc2c(Nc3ccc(F)c(Cl)c3)ncnc2cc1O[C@H]1CCOC1` [Afatinib], the Cmax [1, 5] is given as 0.04 µM, the “labeling for DILI” value ([2]; W&P warnings and precautions, BBW black box warnings, ref FDA product labeling) is given as “W&P: ALT↑/monitoring” and the “DILI potential (based on labeling)” value ([2]; ref FDA product labeling) is given as 1.
In the case of `Cc1nc(Nc2ncc(C(=O)Nc3c(C)cccc3Cl)s2)cc(N2CCN(CCO)CC2)n1` [Dasatinib], the Cmax [1, 5] is listed as 0.18 µM and the “DILI potential (based on labeling)” value ([2]; ref FDA product labeling) is listed as 0.
For `Cc1ccc(NC(=O)c2ccc(CN3CCN(C)CC3)cc2)cc1Nc1nccc(-c2cccnc2)n1` [Imatinib], the “DILI potential (based on labeling)” value ([2]; in vivo) is given as 1 and the “labeling for DILI” value ([2]; in vivo) is given as “W&P: fatal DILI”.
In the case of `CC(=O)c1c(C)c2cnc(Nc3ccc(N4CCNCC4)cn3)nc2n(C2CCCC2)c1=O` [Palbociclib], the Cmax [1, 5] is listed as 0.24 µM and the “DILI potential (based on labeling)” value ([2]; ref FDA product labeling) is listed as 0.
For `C[C@@H]1CCN(C(=O)CC#N)C[C@@H]1N(C)c1ncnc2[nH]ccc12` [Tofacitinib], the Cmax [1, 5] is given as 0.09 µM and the “lowest concentration causing cytochrome c release” value ([3]; rat, 30 min, pH 7.4) is given as 100 fold Cmax.
In the case of `[Ca+2].[Cl-].[Cl-]` [calcium chloride], the “increase in ROS production” value [4] is reported as “threefold”.
In the case of `Cc1ccc(NC(=O)c2ccc(CN3CCN(C)CC3)cc2)cc1Nc1nccc(-c2cccnc2)n1` [imatinib mesylate], the Cmax ([1]; read-out: Cmax at µM, therapeutic maximal blood concentration, ref product labeling) is listed as 2 µM, the “Cmax” value ([1]; therapeutic maximal blood concentration, ref product labeling) is listed as 986 ng/mL and the “Labeling for DILI” value ([2]; in vivo) is listed as “W&P: fatal DILI”.
With `CNS(=O)(=O)C[C@H]1CC[C@H](N(C)c2ncnc3[nH]ccc23)CC1` [oclacitinib] the “cytochrome c release from intact mitochondria” value [3] was “significant cytochrome c release”.
